# Test results from patent US20140011772A1, “COMPOSITIONS AND METHODS FOR TREATING CONDITIONS ASSOCIATED WITH NEURONAL DYSFUNCTION” (NORTHWESTERN UNIVERSITY, priority 2009, published 2014).
# Entries after “also recorded” stand apart in the source; their conditions may differ.
# Assays:
# SNI rats = assay: Von Frey pain thresholds in the spared nerve injury (SNI) model of chronic neuropathic pain; format: in vivo, rat; conditions: for analgesic effect: 10 mg/kg in ethanol, oral; for analgesic effect / effect on pain threshold: 10 mg/kg; for effect on pain threshold: 10 mg/kg oral, both paws / non-operative paw
# Description: Von Frey thresholds (a standard measure of pain sensitivity) were measured on the operated paw (left panel) and on the contralateral paw (right panel) in adult rats. 4 animals received the drug (10 mg/kg oral administration), and 4 animals the vehicle only. […] Note the fast onset of the effect, which may be very important for clinical use.
# Chronic pain constitutes a primary reason driving people to seek health care. Pain was has been described as “epidemic” by the American Academy of Pain Management (American Pain Society, 1999): 50 million Americans are partially or totally disabled by pain. […] In particular, the spared nerve injury model (SNI), a reliable animal model of chronic neuropathic pain, was used to test the effect of oral administration of FFA. Control experiments were performed administrating the vehicle only. […] KCNK channels regulate neuronal excitability by regulating membrane potential, input resistance and synaptic gain (see, e.g., Taverna S, et al., 2005, J Neurosci Oct. 5; 25(40):9162-70; Meuth S G, et al., 2003 J Neurosci. Jul. 23; 23(16):6460-9; each herein incorporated by reference in their entireties).
# [1] = system: epileptiform discharges in 4AP treated rat hippocampal slices; assay: 4AP-induced epileptiform discharges, extracellular recordings from the CA1 area of hippocampal slices; format: cell-based
# Description: A, extracellular recordings from the CA1 area of a rat hippocampal slices in which epileptic-like activity was induced by bath application of 4AP (50 μM). […] B, in another 4AP treated slice, the effects of different concentrations of FFA were tested.
# Similar pathophysiologies exist for epilepsy and various chronic pain disorders (see, e.g., Pappagallo M (2003) Clin Ther. 25:2506-38; herein incorporated by reference in its entirety). […] Epileptic discharges were induced in a slice of rodent hippocampal tissue by bath application of the voltage-gated potassium channel blocker 4-aminopyridine (4AP) (see, e.g., Lopantsev V, Avoli M. (1998) J Physiol. 509:785-96; Brückner C, et al., Neurosci Lett. 268:163-5; each herein incorporated by reference in their entireties). […] The effect of flufenamic acid on hippocampal neurons, for example, involves induction of neuronal hyperpolarization by activating a background potassium conductance, and a reduction of neuronal excitability by inhibition of the voltage-gated sodium current.
# Hippocampal brain slices: 11- to 20-day-old Long-Evans rats were anesthetized with isoflurane and killed by decapitation. The brain was removed from the skull in ice-cold artificial cerebrospinal fluid (ACSF), containing: 125 mM NaCl, 25 mM NaHCO3, 2.5 mM KCl, 1.25 mM NaH2PO4, 1.8 mM CaCl2, 1 mM MgCl2 and 2 mM 5 glucose, bubbled with 95% O2 and 5% CO2 (pH 7.4). Transverse hippocampal slices (300 μm thick) were cut using a vibroslicer (Dosaka) and stored in a solution containing: 87 mM NaCl, 25 mM NaHCO3, 2.5 mM KCl, 1.25 mM NaH2PO4, 0.5 mM CaCl2, 7 mM MgCl2, 75 mM sucrose and 25 mM glucose, bubbled with 95% O2 and 5% CO2; slices were kept at 35° C. for 15-20 minutes and subsequently at 24-25° C.
# [2] = system: voltage-gated sodium channels of hippocampal CA1 pyramidal neurons; assay: Voltage-clamp nucleated patch recordings of voltage-gated sodium currents in CA1 pyramidal cells; format: cell-based, rat
# Description: To study the gating properties of the sodium channels, voltage-clamp recordings were performed in the nucleated patch configuration, which allows almost ideal voltage clamp, even for fast sodium currents (28). Recordings were performed at 24-25° C. using an Axopatch 200B (Axon Instruments) patch-clamp amplifier. Data were sampled at 20 kHz and filtered at 10 kHz. Patch pipettes had resistance of 2.5-4 MΩ (in working solution) and were pulled from Corning #0010 lead glass (WPI) or borosilicate 0.4 mm-walled glass (Dagan). The internal solution was CsCl-based and contained: 140 mM CsCl, 10 mM NaCl, 2 mM MgCl2, 10 mM EGTA, 2 mM Na2ATP, 0.1 mM NaGTP, 10 mM HEPES 10, pH 7.3 with CsOH.
# Capacitive transients were reduced by wrapping the pipettes in parafilm and compensated using the fast compensation circuitry of the amplifier. The whole-cell configuration was obtained and the pyramidal identity of cells was quickly confirmed by presence of a sag in the membrane potential in response to a hyperpolarizing current injection. The pipette was then slowly withdrawn while applying a constant negative pressure (−90 to −130 mbar). After excision, patches were held at −90 mV with a small pressure (−15 to −20 mbar). Sodium currents were then obtained by offline digital subtraction of traces in TTX from control traces.
# Drugs were applied to the patches by using a multi-barrel system consisting of 4 glass capillaries (1.5 mm ID) glued together and connected to a syringe pump (WPIL). The patch-pipette carrying the nucleated patch was inserted into each of the pipes, each containing a different extracellular solution. The system ensures that the solution speed is the same in each barrel. For these recordings, the extracellular solution consisted of HEPES-buffered ACSF: 138 mM NaCl, 10 mM HEPES, 2.5 mM KCl, 2 mM CaCl2, 1 mM MgCl2 and 25 mM glucose (pH 7.3), 50 μM CdCl2, 10 mM TEA, and the drugs of interest.
# The voltage-dependence of activation was fit with a Boltzmann function f(V)=1/(1+exp(−(V−V1/2)/k)) raised to the third power, where V1/2 is the voltage at which the activation is half-maximal, and k is the slope factor. The voltage-dependence of inactivation was similarly determined using a Boltzmann function, f(V)=1/(1+exp ((V−V1/2)/k)). The time course of recovery from inactivation was fit with a bi-exponential equation of the form, f(t)=1-(A1 exp(−t/τ) +A2 exp(−t/τ2)), yielding two time constants (τ) and relative contribution (A).
# Voltage-gated sodium currents were recorded in nucleated patches from CA1 pyramidal cells from 11- to 20-day-old rats. FFA was tested at 0.2 mM, a concentration similar to that used as Ican blocker (0.5 mM, (32) and as two-pore potassium channels opener (0.1 mM, (40)).
# The effect of FFA on the amplitude of sodium currents recorded in nucleated patches was investigated using a 30 ms step (to 10 mV) from −70 mV (close to the resting potential of hippocampal pyramidal neurons). 200 μM FFA blocked 34% of the sodium current (FIG. 7). The mechanism of action of FFA on sodium channels was characterized in detail. Even with a cesium-based intracellular solution and in the presence of extracellular TEA and cadmium some contaminating currents could often still be detected in pyramidal cell nucleated patches; therefore analysis was performed on TTX-subtracted traces only. TTX-sensitive current data for the control and the FFA were obtained from different patches.
# [3] = system: CA1 hippocampal pyramidal neurons; assay: Whole cell current-clamp recordings, firing upon depolarizing current injection; format: cell-based, rat; conditions: FFA 0.2 mM
# Description: (A) Current clamp recordings obtained (at 32-33° C.) from a CA1 hippocampal neuron in response to depolarizing current injection (150 pA, 1 s, bottom) in control (top trace) and in the presence of FFA (200 μM, middle). (B) Firing frequency in response to a series of current injections (1 s, 30 pA steps) in control and in FFA.
# (§1) Electrophysiological recordings: Slices were visualized with an Axioskop 2FS (Zeiss) upright microscope with a water-immersion 60× objective (0.9 NA, Olympus). For whole cell current-clamp recordings, the bath solution contained kynurenic acid (2 mM) and picrotoxin (0.1 mM) to block fast synaptic transmission, and pipettes were filled with internal solution consisting of: 140K-gluconate, 8 mM NaCl, 2 mM MgCl2, 1 mM EGTA, 2 mM Na2ATP 2, 0.1 mM NaGTP, 10 mM HEPES, pH 7.3 with KOH.
# The effect of FFA on burst and tonic firing of hippocampal pyramidal neurons was examined during development of embodiments of the present invention (FIG. 13). Recordings were obtained in the presence of kynurenic acid (2 mM) and picrotoxin (0.1 mM) to block fast synaptic transmission. […] For a 150 pA depolarizing current pulse the firing frequency decreased from 21.7±1.82 Hz in control conditions to 1.87±0.61 Hz in FFA (FIG. 13A,B).
# [4] = system: CA1 pyramidal neurons in 4-AP bathed slices; assay: 4-AP induced burst firing, whole-cell current clamp in 4-AP bathed slices; format: cell-based, rat
# Description: The trace segments between dashed lines are shown on an expanded time scale (insets) to resolve bursts. (B) Firing frequency in response to depolarizing current injections. (C) Interspike interval ratio (ISI) against different current injections. For each current step, the ISI ratio was obtained dividing the interval between the first two spikes by the mean interspike interval. Recordings were obtained at 24-25° C.
# as §1
# Experiments were conducted during development of embodiments of the present invention to examine the inhibitory effect of FFA on burst firing. All CA1 pyramidal cells show robust burst firing in the presence of 4-Aminopyridine (4-AP), a potassium channel blocker. Whole-cell current clamp recordings were obtained from CA1 pyramidal neurons in 4-AP bathed slices. These recordings were also performed at 32-33° C. and in the presence of kynurenic acid and picrotoxin.
# [5] = FIG. 5: 100 ms pre-pulses, 30 ms test pulse to 0 mV, 2 nucleated patches
structure (smiles),measurement,setting,value
"O=C(O)c1ccccc1Nc1cccc(C(F)(F)F)c1 [FFA, 2-[[3-(trifluoromethyl)phenyl]amino]benzoic acid]",analgesic effect,SNI rats,rapid and potent analgesic effect
same,analgesic effect,SNI rats; listed as flufenamic acid,potent analgesic effect
same,increase of Von Frey threshold on the injured paw,"SNI rats; 10 mg/kg oral administration, operated paw",more than 10 times
same,effect on pain threshold,SNI rats,significantly increased the pain threshold in the non-operative paw
same,effect on pain threshold,SNI rats; listed as flufenamic acid,increased pain threshold in both paws
same,effect on epileptiform discharges,"[1]; 50 μM FFA, 4AP treated slice",small reduction in the amplitude of individual events
same,effect on epileptiform discharges,"[1]; 100 μM FFA, 4AP treated slice",strongly reduced the discharge frequency
same,effect on epileptiform discharges,"[1]; 200 μM FFA, 4AP 50 μM",completely and reversibly inhibited the epileptiform discharges; also recorded: completely abolished the discharges
same,"antiepileptic effect, concentration dependence","[1]; 4AP treated slices, 50-200 μM","clear dose-dependent effect; also recorded: potent, concentration dependent, antiepileptic effect"
same,Na+ channel activation slope factor (k/3),[2]; 200 μM FFA,5.6±0.27 mV
same,block of the sodium current,"[2]; 200 μM FFA, 30 ms step from −70 mV",34%
same,mean peak Na+ current amplitude,"[2]; 200 μM FFA, 50 ms prepulse to −70 mV, test pulse to −10 mV, 15 nucleated patches",−183.6±21.7 pA
same,Na+ channel activation mid-point potential,"[2]; 200 μM FFA, Boltzmann raised to third power",−11.3±1.36 mV
same,shift in voltage dependence of inactivation,[2]; 50 ms prepulse,~12 mV
same,steady-state inactivation mid-point potential,"[2]; 50 ms prepulse, in FFA",−67.8±1.4 mV
same,steady-state inactivation slope factor,"[2]; 50 ms prepulse, in FFA",10.7±0.5 mV
same,steady-state inactivation mid-point potential,"[2]; 200 ms prepulse, in FFA",−74.1±2.6 mV
same,steady-state inactivation slope factor,"[2]; 200 ms prepulse, in FFA",8.9±1.0 mV
same,sodium channel inactivation Boltzmann function half point,[2]; [5],−89.7 mV
same,sodium channel inactivation Boltzmann slope,[2]; [5],9.1 mV
same,time constant of inactivation onset,"[2]; at 0 mV, in FFA (0.2 mM)",0.70 ± 0.03 ms
same,fraction of sodium channels available for activation,"[2]; at −70 mV, in FFA",0.57±0.04
same,effect on the sodium channel activation curve,[2]; hippocampal pyramidal neurons,No significant effect; also recorded: only minimal effect
same,firing frequency,"[3]; 150 pA, 1 s depolarizing current pulse, kynurenic acid and picrotoxin",1.87±0.61 Hz
same,effect on number of action potentials / repetitive firing,[3]; 1 s-long depolarizing current injection,strongly decreased the number of action potentials; also recorded: effectively decreases repetitive firing
same,effect on spikes and burst firing,"[4]; 4-AP slice epilepsy model, bath application of FFA",dramatically reduced both the total number of spikes and bursting; also recorded: completely abolishes burst firing
same,interspike interval (ISI) ratio,"[4]; 120 pA current injection, 4-AP, FFA 0.2 mM",0.74±0.06
